Patent US9415035B2, “Compositions containing omega-3 oil with an anti-inflammatory agent and uses thereof” (Maine Natural Health Company, Inc., priority 2010, dated 2016)

System: companion animals (cats and dogs)
Experiment: Companion animal mobility, further addition of glucosamine
Format: in vivo
Set-up: dose or concentration left out as unconfirmed
Settings: glucosamine added to OmegaMaine omega-3 oil; data not shown
Experimental: Cats (n=5) were given 2.5 mL (½ teaspoon) of OmegaMaine liquid omega-3 oil by adding directly to their food. Dogs (n=5) were given 5 mL (1 teaspoon) of OmegaMaine omega-3 oil by adding directly to their food. For reference, 5 mL of OmegaMaine omega-3 oil contains, minimally, 800 mg of EPA, and, minimally, 750 mg of DHA. Animals were scored on a scale of 1 to 10, where 10 was behavior like a kitten or a puppy and 1 was severe immobility. All animals in the test group average 8 years of age. Animals were evaluated prior to treatment and 2 weeks after daily treatment with OmegaMaine omega-3 oil (Table 4).

## N[C@H]1C(O)O[C@H](CO)[C@@H](O)[C@@H]1O (stereo partly shown) [glucosamine]
  therapeutic benefit on mobility: additional therapeutic benefit
